Type in all cases: cell-based
One assay addresses T1, mouse GLP2 receptor (Mus musculus, UniProt Q5IXF8).
T1 construct: expressed in transfected cells; host or cells: HEK cells, transient transfection with GeneJuice
T1 sequence (Q5IXF8 1-512): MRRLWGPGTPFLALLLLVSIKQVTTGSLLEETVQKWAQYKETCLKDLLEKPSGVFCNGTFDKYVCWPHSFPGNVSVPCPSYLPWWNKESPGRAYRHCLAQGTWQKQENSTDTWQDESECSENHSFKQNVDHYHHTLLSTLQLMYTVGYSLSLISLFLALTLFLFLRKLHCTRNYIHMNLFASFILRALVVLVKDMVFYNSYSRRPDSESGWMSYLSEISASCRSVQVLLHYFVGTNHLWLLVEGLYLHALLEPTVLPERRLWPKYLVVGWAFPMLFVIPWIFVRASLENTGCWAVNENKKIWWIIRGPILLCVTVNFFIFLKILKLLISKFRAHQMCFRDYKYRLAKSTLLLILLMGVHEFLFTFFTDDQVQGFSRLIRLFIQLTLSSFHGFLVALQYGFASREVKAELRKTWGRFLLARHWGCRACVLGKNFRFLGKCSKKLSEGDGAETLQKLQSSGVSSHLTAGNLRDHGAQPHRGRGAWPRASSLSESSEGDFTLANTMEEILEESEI
The assay can be described thus: cAMP accumulation assay, functional agonism of mouse GLP2 receptor. Particulars: for EC50: read-out: Mouse GLP-2R agonist cAMP pEC50 (converted). On the procedure:
CAMP production upon agonist stimulation of mouse GLP2 or GLP1 receptors was assessed utilizing HiRange cAMP kit (Cisbio). In brief, HEK cells were transiently transfected for 24 hours with cDNA using GeneJuice Transfection reagent (EMD Millipore) and frozen at −80° C. for later use in the assay. On the day, various concentrations of compounds were dispensed using ECHO-555 (LabCyte) to a total volume of 100 nl into a low volume 384-well Proxi plate (Perkin Elmer) followed by addition of 10 μl of cell suspension delivering 8000 cells per well. Cells were prepared in the assay buffer (HBSS (Lonza) supplemented with 0.5 mM IBMX (Tocris)). After 45 min incubation at 37° C., the reaction was stopped by addition of the HTRF detection reagents in the lysis buffer provided in the kit. Following 1-hour incubation at RT, plates were read on Pherastar FS (BMG Labtech, Inc.) using standard HTRF settings. Dotmatics Studies software was used for calculation of pEC50 values by fitting data to a four-parameter concentration response curve.
(In general: cAMP levels reflect the balance of adenylyl cyclase and phosphodiesterase activity.)

A further assay concerns the target T2, human GLP2 receptor (Homo sapiens, UniProt O95838).
T2 construct: expressed in transfected cells; host or cells: HEK cells, BacMam virus transduction
T2 sequence (O95838 1-553): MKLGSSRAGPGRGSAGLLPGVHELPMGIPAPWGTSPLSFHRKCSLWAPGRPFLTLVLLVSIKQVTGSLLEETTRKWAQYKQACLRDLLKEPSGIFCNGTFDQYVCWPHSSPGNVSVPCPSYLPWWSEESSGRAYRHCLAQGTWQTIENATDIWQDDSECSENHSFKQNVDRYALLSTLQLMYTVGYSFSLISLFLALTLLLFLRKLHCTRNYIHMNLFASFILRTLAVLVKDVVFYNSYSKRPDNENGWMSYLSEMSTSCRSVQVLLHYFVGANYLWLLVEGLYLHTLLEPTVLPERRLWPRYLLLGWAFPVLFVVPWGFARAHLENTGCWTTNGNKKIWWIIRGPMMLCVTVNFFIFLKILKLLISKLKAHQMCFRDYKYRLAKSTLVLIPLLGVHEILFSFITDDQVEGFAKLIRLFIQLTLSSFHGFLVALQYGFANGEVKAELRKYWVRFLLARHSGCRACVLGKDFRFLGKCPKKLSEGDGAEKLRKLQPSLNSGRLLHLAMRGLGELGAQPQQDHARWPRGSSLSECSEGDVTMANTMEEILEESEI
The assay can be described thus: cAMP accumulation assay, functional agonism of human GLP2 receptor. To be noted: HEK cells infected with human GLP2 receptor BacMam virus, HTRF cAMP; for Emax: HEK293, read-out: Human GLP-2R agonist cAMP Emax; for EC50: read-out: Human GLP-2R agonist cAMP pEC50 (converted). An outline of the steps: (§1)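 Agonist-driven cAMP production was quantified by homogeneous time-resolved fluorescence. Receptor expression in HEK cells came from a 24-hour BacMam infection, and cells were frozen ahead of the assay. Incubation lasted 45 min at 37° C in HBSS supplemented with 0.5 mM IBMX.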

In a further assay the target is T3, human GLP1 receptor (Homo sapiens, UniProt P43220).
T3 construct: expressed in transfected cells; host or cells: HEK cells, BacMam virus transduction
The assay can be described thus: cAMP accumulation assay, functional agonism of human GLP1 receptor. To be noted: HEK cells infected with human GLP1 receptor BacMam virus, HTRF cAMP; for Emax: HEK293, read-out: Human GLP-1R agonist cAMP Emax; for EC50: read-out: Human GLP-1R agonist cAMP pEC50 (converted). An outline of the steps:
as §1

[1] abbreviates: HEK293, HEK cells transiently transfected with mouse GLP2 receptor, HTRF cAMP, read-out: Mouse GLP-2R agonist cAMP Emax.
Setting [2] is: HEK cells transiently transfected with mouse GLP2 receptor, HTRF cAMP.

The source of these data is patent US20240270809A1, “ORAL GLP RECEPTOR AGONISTS” (priority 2020, published 2024).

pEC50: −log10 of the molar value. Read-outs that look alike come from different tables or passages of the source. Positions of bridges follow the written chain, without caps; N, C: chain ends. Non-standard residues stand in square brackets, D forms with d. Residues, ends and D or L forms follow the SMILES beside them. *: point of attachment. Malonyl(2,2-Me2,histaminyl) = CC(C)(C(=O)NCCc1cnc[nH]1)C(=O)*; αMePhe(2-F) = C[C@](N)(Cc1ccccc1F)C(=O)O; αMeL = CC(C)C[C@](C)(N)C(=O)O; Nle = CCCC[C@H](N)C(=O)O; Aib = CC(C)(N)C(=O)O

T3 sequence (P43220 24-463): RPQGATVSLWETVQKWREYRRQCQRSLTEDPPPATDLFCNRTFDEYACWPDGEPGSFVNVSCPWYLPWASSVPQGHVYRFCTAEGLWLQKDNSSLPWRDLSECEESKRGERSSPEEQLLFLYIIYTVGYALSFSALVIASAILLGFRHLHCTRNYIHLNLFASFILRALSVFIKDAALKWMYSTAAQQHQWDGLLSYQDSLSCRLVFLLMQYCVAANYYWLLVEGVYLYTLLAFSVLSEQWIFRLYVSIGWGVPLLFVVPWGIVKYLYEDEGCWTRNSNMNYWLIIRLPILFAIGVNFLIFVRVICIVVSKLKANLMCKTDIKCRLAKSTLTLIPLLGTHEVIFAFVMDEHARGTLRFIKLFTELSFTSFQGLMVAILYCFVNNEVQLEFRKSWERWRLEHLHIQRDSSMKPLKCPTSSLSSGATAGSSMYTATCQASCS

As to `CCCC[C@H](NC(=O)[C@H](CCC(=O)O)NC(=O)[C@@H]1CC(=O)NCCCC[C@H](NC(=O)[C@H](CC(=O)O)NC(=O)C(C)(C)NC(=O)[C@@H](N)Cc2c[nH]cn2)C(=O)N[C@@H](CO)C(=O)N[C@@](C)(Cc2ccccc2F)C(=O)N[C@@H](CO)C(=O)N1)C(=O)N[C@H](Cc1ccccc1)C(=O)N[C@H](C(=O)N[C@@](C)(CC(C)C)C(=O)N[C@@H](CC(C)C)C(=O)N[C@@H](CC(=O)O)C(=O)N[C@H]1CCC(=O)NCCCC[C@@H](C(=O)N[C@@H](CC(=O)O)C(=O)N[C@@H](Cc2ccccc2)C(=O)N[C@H](C(=O)N[C@H]2CCC(=O)NCCCC[C@@H](C(=O)N[C@H]3CCC(=O)NCCCC[C@@H](C(N)=O)NC(=O)[C@H]([C@@H](C)O)NC(=O)[C@H]([C@@H](C)CC)NC(=O)[C@H](CCCCN)NC3=O)NC(=O)[C@H]([C@@H](C)CC)NC(=O)[C@H](CC(C)C)NC(=O)[C@H](Cc3c[nH]c4ccccc34)NC2=O)[C@@H](C)CC)NC(=O)[C@H](C)NC(=O)[C@H](C)NC(=O)[C@H](CCCCN)NC1=O)[C@@H](C)O` [Example 64] (H-H[Aib]DKS[αMePhe(2-F)]SDE[Nle][dF]T[αMeL]LDEKAAKDFIEWLIKEKITK-NH2; lactam 4-8, 16-20, 24-28, 29-33; N-terminus and C-terminus assumed), the Emax on mouse GLP2 receptor (setting [1]) is 99.7%; on human GLP2 receptor, 104%; on human GLP1 receptor, 98%. In addition, the EC50 at mouse GLP2 receptor (setting [2]) is 2 nM; at human GLP2 receptor it was 0.0398 nM; on human GLP1 receptor, 0.0251 nM.

With `CCCC[C@H](NC(=O)[C@H](CCC(=O)O)NC(=O)[C@@H]1CC(=O)NCCCC[C@H](NC(=O)[C@H](CC(=O)O)NC(=O)C(C)(C)C(=O)NCCc2c[nH]cn2)C(=O)N[C@@H](CO)C(=O)N[C@@](C)(Cc2ccccc2F)C(=O)N[C@@H](CO)C(=O)N1)C(=O)N[C@H](Cc1ccccc1)C(=O)N[C@H](C(=O)N[C@@](C)(CC(C)C)C(=O)N[C@@H](CC(C)C)C(=O)N[C@@H](CC(=O)O)C(=O)N[C@H]1CCC(=O)NCCCC[C@@H](C(=O)N[C@@H](CC(=O)O)C(=O)N[C@@H](Cc2ccccc2)C(=O)N[C@H](C(=O)N[C@H]2CCC(=O)NCCCC[C@@H](C(=O)N[C@H]3CCC(=O)NCCCC[C@@H](C(N)=O)NC(=O)[C@H]([C@@H](C)O)NC(=O)[C@H]([C@@H](C)CC)NC(=O)[C@H](CCCCN)NC3=O)NC(=O)[C@H]([C@@H](C)CC)NC(=O)[C@H](CC(C)C)NC(=O)[C@H](Cc3c[nH]c4ccccc34)NC2=O)[C@@H](C)CC)NC(=O)[C@H](C)NC(=O)[C@H](C)NC(=O)[C@H](CCCCN)NC1=O)[C@@H](C)O` [Example 65] ({Malonyl(2,2-Me2,histaminyl)}-DKS[αMePhe(2-F)]SDE[Nle][dF]T[αMeL]LDEKAAKDFIEWLIKEKITK-NH2; lactam 2-6, 14-18, 22-26, 27-31 (inferred); C-terminus assumed), the Emax on mouse GLP2 receptor (setting [1]) was found to be 86.3%; at human GLP2 receptor, 102%; on human GLP1 receptor, 97.9%. In addition, the EC50 at mouse GLP2 receptor (setting [2]) is 6.31 nM; on human GLP2 receptor, 0.0398 nM; at human GLP1 receptor it was 0.0398 nM.

For `CCCC[C@H](NC(=O)[C@H](CCC(=O)O)NC(=O)[C@@H]1CCCCNC(=O)CC[C@H](NC(=O)[C@H](CC(=O)O)NC(=O)C(C)(C)NC(=O)[C@@H](N)Cc2c[nH]cn2)C(=O)N[C@@H](CO)C(=O)N[C@@H](Cc2ccccc2)C(=O)N[C@@H](CO)C(=O)N1)C(=O)N[C@H](Cc1ccccc1)C(=O)N[C@H]1CCC(=O)NCCCC[C@@H](C(=O)N[C@H]2CCCCNC(=O)C[C@@H](C(=O)N[C@@H](Cc3ccccc3)C(=O)N[C@H](C(=O)N[C@H]3CCC(=O)NCCCC[C@@H](C(=O)N[C@H]4CCCCNC(=O)CC[C@@H](C(N)=O)NC(=O)[C@H]([C@@H](C)O)NC(=O)[C@H]([C@@H](C)CC)NC(=O)[C@H](CCCCN)NC4=O)NC(=O)[C@H]([C@@H](C)CC)NC(=O)[C@H](CC(C)C)NC(=O)[C@H](Cc4c[nH]c5ccccc45)NC3=O)[C@@H](C)CC)NC(=O)[C@H](CCCCN)NC(=O)[C@H](C)NC(=O)[C@H](C)NC2=O)NC(=O)[C@H](CC(=O)O)NC(=O)[C@H](CC(C)C)NC(=O)[C@H]([C@@H](C)CC)NC1=O` [Example 75] (H-H[Aib]DESFSKE[Nle][dF]EILDKKAAKDFIEWLIKKKITE-NH2; lactam 4-8, 12-16, 17-21, 24-28, 29-33 (inferred); C-terminus assumed), the maximal effect (Emax) at mouse GLP2 receptor (setting [1]) was 81.9%; at human GLP2 receptor it was 102%; at human GLP1 receptor it was 95%. In addition, the EC50 at mouse GLP2 receptor (setting [2]) is 6.31 nM; on human GLP2 receptor, 0.0398 nM; at human GLP1 receptor, 0.631 nM.

`CCCC[C@@H]1NC(=O)[C@H](CCC(=O)O)NC(=O)[C@H](CC(=O)O)NC(=O)[C@@H](NC(=O)[C@H](Cc2ccccc2)NC(=O)[C@H](CO)NC(=O)CNC(=O)[C@H](CC(=O)O)NC(=O)C(C)(C)NC(=O)[C@@H](N)Cc2c[nH]cn2)CCC(=O)NCCCC[C@@H](C(=O)N[C@H]2CCC(=O)NCCCC[C@@H](C(=O)N[C@H]3CCC(=O)NCCCC[C@@H](C(=O)N[C@@H](CC(=O)O)C(=O)N[C@@H](Cc4ccccc4)C(=O)N[C@H](C(=O)N[C@H]4CCC(=O)NCCCC[C@@H](C(=O)N[C@H]5CCCCNC(=O)CC[C@@H](C(N)=O)NC(=O)[C@H]([C@@H](C)O)NC(=O)[C@H]([C@@H](C)CC)NC(=O)[C@H](CCCCN)NC5=O)NC(=O)[C@H]([C@@H](C)CC)NC(=O)[C@H](CC(C)C)NC(=O)[C@H](Cc5c[nH]c6ccccc56)NC4=O)[C@@H](C)CC)NC(=O)[C@H](C)NC(=O)[C@H](C)NC3=O)NC(=O)[C@H](CC(=O)O)NC(=O)[C@H](CC(C)C)NC(=O)[C@H]([C@@H](C)CC)NC2=O)NC1=O` [Example 76] (H-H[Aib]DGSFEDE[Nle]KEILDKEAAKDFIEWLIKKKITE-NH2; lactam 7-11, 12-16, 17-20, 24-28, 29-33 (inferred)) showed a pEC50 on mouse GLP2 receptor of 8.90. Besides, the Emax worked out at 102% at mouse GLP2 receptor (HEK293, read-out: Mouse GLP-2R agonist cAMP Emax); 102% on human GLP2 receptor; 94.9% on human GLP1 receptor. Besides, the EC50 is 0.0126 nM at human GLP2 receptor and 1 nM on human GLP1 receptor.

A word on the Emax: it is the greatest response seen or fitted, relative to the assay's reference. As usually defined, the pEC50 is the EC50 on a negative log10 scale, so that one unit is a factor of ten. Lower therefore signals a high EC50.
